The results in this text go back to PMC11234460, “In Silico Discovery of Stapled Peptide Inhibitor Targeting the Nur77‐PPARγ Interaction and Its Anti‐Breast‐Cancer Efficacy” (Advanced Science, 2024).

Structures are written as SMILES. Where a SMILES comes first, the peptide text is derived from it. Bridges are numbered along the chain shown (N, C = ends). [ ]: non-standard residue; d: D form. S5 = C=CCCC[C@](C)(N)C(=O)O

For one data set, the target named is T1, Nur77-PPARγ complex (Homo sapiens, UniProt P22736).
T1 construct: expressed in transfected cells; host or cells: HEK293T
Kind of data set: NanoBiT assay of Nur77-PPARγ complex formation in HEK293T cells. The format is cell-based. Conditions: 1 × 10^−5 M peptide, 1 h, n = 3. The procedure:
HEK293T cells were seeded in a poly‐d‐lysine‐coated black 96‐well cell culture plate at 10 000 cells per well in 100 µL culture medium. The next day, the master mix of 100 ng receptor construct containing the PPARγ‐LargeBit and SmallBit‐Nur77 plasmids (w/w, 50 ng:50 ng) was diluted in Opti‐MEM Medium (Gibco, 11058‐021), then P3000 Reagent was added. Meanwhile, 0.15 µL Lipofectamine 3000 reagent (ThermoFisher, L3000015) was added to 5 µL Opti‐MEM Medium. Subsequently, diluted DNA was added to Lipofectamine 3000 reagent (V/V, 1:1) and incubated for 15 min at room temperature. A mixture containing the above plasmids and Lipofectamine 3000 was prepared and added to each well. After 24 h, the cells were treated with 1 × 10^−5 M peptides (TAT, T‐CY14, S‐CY14, and ST‐CY14) or variable concentrations of ST‐CY‐14 (0.1/0.2/0.5/1/2/5/10/20/40 × 10^−6 M) for 1 h. The culture medium was replaced with 90 µL Tyrode's solution (Solarbio, T1420). Then, 10 µL furimazine (5 × 10^−5 M) was added to each well and the luminescence signal was measured every 86 s for 1 h at 37 °C.

Data set [1] has as its system Nur77-knockdown MCF7 and MDA-MB-231 cells. Description: Cell viability assay (CCK-8), Nur77-knockdown breast tumor cells. The format is cell-based. As to conditions: Nur77-knockdown MCF7 and MDA-MB-231, 24 h. The procedure:
Cells were seeded 24 h prior to transfection. Transfection was performed with Transfect‐Mate (GenePharma, G04009) according to the manufacturer's protocols. To transfect siRNA into cells seeded on 6 well cell culture plates, 150 pmol of siRNA was mixed with 8 µL Transfect‐Mate, incubated at room temperature for 15 min, and then added to the cells. The medium was changed to DMEM after 6 h of culture, and the cells were incubated at 37 °C in a 5% CO2 incubator. 48 h later, the siRNA was successfully expressed and could be used for further experiments. The siRNAs used were listed in Table S1 (Supporting Information).

For a further data set, the system named is MCF7 cells. Description: Long-chain fatty acid uptake assay (BODIPY FL C16). Format: cell-based, human. As to conditions: 24 h, BODIPY FL C16 1 h. The procedure: 5×10^4 MCF7 cells were seeded in confocal dishes and cultured overnight at 37 °C and 5% CO2. The cells were then incubated with a basic DMEM medium containing various concentrations of peptides (1/2/5/10/20 × 10^−6 M for flow cytometry and 10 × 10^−6 M for immunofluorescence) for 24 h. Afterward, 1 µL BODIPY FL C16 (1 × 10^−6 M, Thermo Fisher, D3821) was added to the confocal dishes and incubated with the cells for 1 h. Following incubation, the cell nuclei were stained with Hoechst for 8 min. Uptake of FA was monitored using flow cytometry (CytoFLEX, Beckman Coulter, USA) and DeltaVision OMX (GE, USA).

The test system of another data set is MDA-MB-231 cells. Description: Transwell cell migration analysis. Format: cell-based. Conditions: MDA-MB-231, 12 h. The procedure: 600 µL DMEM complete medium was added to the lower chamber of the Transwell. Next, 2×10^4 cells in 100 µL DMEM medium, containing 1, 2, 5, 10, or 2 × 10^−5 M peptides, were added to the upper chamber of the Transwell. The cells were incubated for 12 h at 37 °C and 5% CO2. After the incubation period, the medium was discarded, and the chamber was washed with PBS. The cells were then fixed with 4% paraformaldehyde for 20 min. The upper chamber was subsequently soaked in crystal violet for 20 min, washed with PBS, and observed under a microscope for analysis.

The subject of a further data set is MDA-MB-231-GFP xenograft. Description: MDA-MB-231-GFP orthotopic xenograft tumor model. The format is in vivo, mouse. An excerpt: Female BALB/c mice (4–5 weeks old, 16–18 g) and BALB/c mice (7–8 weeks old, 18–20 g) were provided by Shanghai Slake Experimental Animal Co., Ltd., and housed under specific pathogen‐free conditions for use in orthotopic xenograft tumor model experiments and bone metastasis tumor model experiments. The animal experiment was approved by the ethical committee of Shanghai University of Traditional Chinese Medicine (approval number: PZSHUTCM220627036).
To establish the bone metastasis tumor model, 1×10^5 cells were injected into the left ventricle of each mouse (7–8 weeks old), and surgery was monitored using a cardiac ultrasound instrument. The mice were randomly divided into three groups and treated with PBS (control group, n = 6), 5 mg kg^−1 ST‐CY14 (n = 6), and 10 mg kg^−1 ST‐CY14 (n = 6) Tumor cell metastasis was monitored using an in vivo imaging instrument (IVIS Spectrum, PerkinElmer, USA). by intraperitoneal injection of 20 mg kg^−1 D‐luciferin. The mice were treated with ST‐CY14 via intravenous injection using a 100 µL PBS solution every 2 days starting on the designated day after tumor cell injection. Bone tissue with MDA‐BoM‐1833 cell metastasis was obtained and stained for TRAP. The mice sera were collected and analyzed for BSP and β‐CTx levels using ELISA (Lengton, BPE10823, BPE10438). For the orthotopic xenograft tumor model, 3×10^6 cells were injected into the fourth pair of breast pads on the left side of the mouse (4–5 weeks old). The mice were treated with ST‐CY14 every two days once the tumor volume reached 30–50 mm^3, with the same groups as in the bone metastasis tumor model. The tumors were collected and stained for H&E, Ki‐67, and TUNEL assays, which were conducted by Wuhan Servicebio Technology Co., Ltd. Major organs (heart, liver, spleen, lung, and kidney) were also collected for H&E analysis by Wuhan Servicebio Technology Co., Ltd. The Transcriptome and LC/MS targeted lipid metabolome were sequenced by OE Biotech, Inc., Shanghai, China. […]

The test system of another data set is MCF-10A cells. As to conditions: 24 h, CCK-8.

T1 sequence (P22736 whole entry, one chain of several): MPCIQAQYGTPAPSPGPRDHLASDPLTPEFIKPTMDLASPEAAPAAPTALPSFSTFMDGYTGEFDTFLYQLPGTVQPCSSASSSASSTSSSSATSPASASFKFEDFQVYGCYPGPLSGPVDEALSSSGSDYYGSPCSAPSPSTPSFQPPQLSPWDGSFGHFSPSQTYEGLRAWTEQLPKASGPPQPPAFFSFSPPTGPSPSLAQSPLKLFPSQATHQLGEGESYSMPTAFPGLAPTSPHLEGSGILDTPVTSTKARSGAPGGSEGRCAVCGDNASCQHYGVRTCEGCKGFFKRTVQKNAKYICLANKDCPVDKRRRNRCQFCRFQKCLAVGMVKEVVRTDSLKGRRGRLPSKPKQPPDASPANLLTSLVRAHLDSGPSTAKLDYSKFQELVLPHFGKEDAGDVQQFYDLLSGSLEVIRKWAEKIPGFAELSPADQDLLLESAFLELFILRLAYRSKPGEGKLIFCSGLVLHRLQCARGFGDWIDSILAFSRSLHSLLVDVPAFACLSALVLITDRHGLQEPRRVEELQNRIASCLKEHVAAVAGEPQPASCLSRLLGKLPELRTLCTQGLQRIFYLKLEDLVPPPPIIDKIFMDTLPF
Description for MCF-10A cells: MCF7, MDA‐MB‐231, and MDA‐BoM‐1833 cells (5000 cells/well) were seeded in 96‐well plates and cultured overnight at 37°C and 5% CO2. The cells were then treated with fresh basic medium containing various concentrations (1/2/5/10/20 × 10^−6 M) of compounds. After 24 h of incubation, the cells were incubated with a basic medium containing 10% Cell Counting Kit‐8 (Dojindo, CK‐04) for 2 h. Cell viability was evaluated by measuring the absorbance at 450 nm. The formula used was [(As‐Ab)/(Ac‐Ab)] × 100%, where as represents the absorbance of the drug‐treated group, Ac represents the absorbance of the control group treated with medium, and Ab represents the absorbance of the blank control containing only medium.

For the molecule `C[C@@H](O)[C@@H]1NC(=O)[C@H](CCCNC(=N)N)NC(=O)[C@H](CCCNC(=N)N)NC(=O)[C@@](C)(NC(=O)[C@H](Cc2ccccc2)NC(=O)CNC(=O)[C@H](CCCCN)NC(=O)[C@H](CS)NC(=O)CNC(=O)[C@H](CCC(=O)O)NC(=O)[C@@H](N)CS)CCCC=CCCC[C@@](C)(C(=O)N[C@@H](CCCNC(=N)N)C(=O)N[C@@H](Cc2ccc(O)cc2)C(=O)N[C@@H](Cc2ccc(O)cc2)C(=O)NCC(=O)N[C@@H](CCCNC(=N)N)C(=O)N[C@@H](CCCCN)C(=O)N[C@@H](CCCCN)C(=O)N[C@@H](CCCNC(=N)N)C(=O)N[C@@H](CCCNC(=N)N)C(=O)N[C@@H](CCC(N)=O)C(=O)N[C@@H](CCCNC(=N)N)C(=O)N[C@@H](CCCNC(=N)N)C(=O)N[C@@H](CCCNC(=N)N)C(N)=O)NC1=O` [ST-CY14] (H-CEGCKGF[S5]RRT[S5]RYYGRKKRRQRRR-NH2; staple 8-12), the “Effect on NanoBiT luminescence (Nur77-PPARγ complex)” value on Nur77-PPARγ complex is recorded as “effectively inhibited the formation of the Nur77‐PPARγ complex”. Moreover, in data set [1], the “Sensitivity of Nur77-knockdown breast tumor cells” value is “less sensitive to ST‐CY14”. The “FA uptake (flow cytometry)” value with MCF7 cells (MCF7, 1-20 × 10^−6 M) is given as “dose‐dependent decrease in FA levels”. The “FA uptake (immunofluorescence)” value in the data set on MCF7 cells (MCF7, 1 × 10^−5 M) is “inhibited FA uptake”. Further, in the data set on MDA-MB-231 cells, the Transwell transmigration result is “inhibited the transmigration”. Further, in the data set with MDA-MB-231-GFP xenograft (5 and 10 mg kg^−1, tail vein, once every two days, thirty days, H&E of major organs), the “Body weight loss and signs of organ toxicity” value is recorded as “without significant body weight loss (Figure 6c) or other signs of organ toxicity”. For the same molecule, the “Nur77, CD36 and FABP4 protein levels in tumors (Western blot)” value in the data set with MDA-MB-231-GFP xenograft (MDA-MB-231-GFP tumors) is “effectively increased Nur77 protein levels, and decreased CD36 and FABP4 protein levels”. Also, the “Ki-67, H&E and TUNEL analysis of tumor sections” value in the data set on MDA-MB-231-GFP xenograft (compared with the control group, n = 3) was “reduced tumor cell proliferation, increased necrosis area and apoptosis”. For the same molecule, the “Sensitivity of normal breast cells” value with MCF-10A cells was “less sensitive to ST‐CY14”.
